Laboratory results from patent US9662360B2, “Treatment of herpes, pseudomonas, staph, and hepatitis” (priority 2008, dated 2017).
Values joined by “and” are separate entries in the source; they are usually repeats but may differ in a detail not shown here. Identical values can stand only once.

What was measured:
[1] = cited from earlier work
[2] = tested on: HSV-1; test: In vitro HSV-1 plaque inhibition on fibroblasts; type: cell-based
Method: Laboratory testing was undertaken at the University Of Chicago, Clinical Microbiology Laboratories to determine inhibitory activity in vitro of the medical treatment and composition (medicine). The laboratory testing was conducted by the Associate Director, PhD, and Associate Professor of Pathology. […] It was stated by the pathologist, that they had tested “hundreds” of other compounds and had never seen anything as good as what this compound did. The following are the tests of the medicine that were conducted and results that were obtained at The University of Chicago. For ease of interpreting some of the scientific data and test results, the following definitions apply: • “MEM” pertains to Minimal Essential Medium. This is the culture medium used in laboratories for growing the cells upon which tests were run. • “Fibroblast” is a mesenchyme human cell (a cell found in connective tissue, blood, bone, lymphatics, and cartilage). • “IC50” pertains to the Inhibitory Concentrate. […] 1. Three 24-compartment plates were inoculated with fibroblasts. […] There were four control compartments on each plate containing MEM without drug. 2. The growth media was removed from the compartments and 200 ul of HSV-1 was added to each compartment of the upper half of each plate. HSV-1 was diluted 1:5000 (2.0 ul of stock HSV-1 in 10 mL of MEM). […] Also, 200 ul of HSV-2 was added to each compartment of the lower half of each plate. HSV-2 was diluted 1:2,000 (5.0 ul of stock HSV-2 in 10 mL of MEM). The virus titer was 6×10^5 per mL. 3. The plates were incubated at 37° C. for two hours. 4. The inoculum was removed and one mL of the MEM containing Drugs #1-3 were added to the four compartments. The concentration of the drug compared to the MEM is indicated below. 1. Three plates were used to screen the three drug preparations. […] There were four control compartments on each plate containing MEM without drug. 2. The growth media was removed from the compartments and 200 ul of HSV-1 was added to each compartment of the upper half of each plate. HSV-1 was diluted 1:5000 (2.0 ul of stock HSV-1 in 10 mL of MEM). […] 3. The plates were incubated at 37° C. for four hours. 4. The inoculum was removed and one mL of the MEM containing drugs #1A-3A were added to the four compartments. 1. Four plates were used to screen the four drug preparations. […] There were four control compartments on each plate containing MEM without drug. 2. The growth media was removed from the compartments and 200 ul of HSV-1 was added to each compartment of the upper two rows of each plate. HSV-1 was diluted 1:5000 (2.0 ul of stock HSV-1 in 10 mL of MEM). […] Also, 200 ul of HSV-2 was added to each compartment of the lower half of each plate. HSV-2 was diluted 1:2,000 (5.0 ul of stock HSV-2 in 10 mL of MEM). The virus titer was 6×10^5 per mL. 3. The plates were incubated at 37° C. for four hours. 4. The inoculum was removed and one mL of the MEM containing drugs #1-4 was added to the four compartments.

[3] = tested on: clinical HIV isolate ROJO in fresh human PBMCs; test: PBMC/ROJO reverse transcriptase activity assay; type: cell-based; conditions: qualitative; PHA blastogenesis
Method: A microtiter based reverse transcriptase (RT) reaction was utilized. Tritiated thymidine triphosphate (NEN) (TTP) was resuspended in distilled H2O at 5 Ci/ml. Poly rA and oligo dT were prepared as a stock solution which was kept at −20° C. The RT reaction buffer was prepared fresh on a daily basis and consists of 125 μl MEGTA, 125 μl dH2O, 125 μl Triton X-100, 50 μl 1M Tris (pH 7.4), 50 μl MDTT, and 40 μl MMgCl2. These three solutions were mixed together in a ratio of 1 parts TTP, 2.5 parts poly rA:oligo dT, 2.5 parts reaction, the reaction buffer and 4 parts distilled water. Ten microliters of this reaction mixture was placed in a round bottom microtiter plate and 15 μl of virus containing supernatant was added and mixed. The plate was incubated at 37° C. and incubated for 60 minutes. […] Incorporated radioactivity was quantitated utilizing a Wallac Microbeta scintillation counter. […]
In the standard PBL assay (MOI: 0.2), the assay was ended on day 7 following collection of cell free supernatant samples for reverse transcriptase activity assay. In the low MOI PBL assay (MOI: 0.02), supernatant samples were collected on day 6, day 11, and day 14 post-infection and analyzed for […]. […]

[4] = tested on: HIV-1 clinical isolate ADA in fresh human monocyte-macrophages; test: Anti-HIV monocyte-macrophage assay (p24 ELISA); type: cell-based; conditions: for P-24 Activity: vs. ADA
Method: ELISA kits were purchased from Coulter. The assay is performed according to the manufacturer's recommendations. Prior to ELISA analysis, the reverse transcriptase activity assays were routinely performed and the values were used for incorporated radioactivity in the RT activity assay to determine the dilution of samples required for the ELISA. Control curves were generated in each assay to accurately quantititate the amount of capsid protein in each sample. Data was obtained by spectrophotometric analysis at 450 nm using a Molecular Devices Vmax plate reader. P24 concentrations were calculated from the optical density values by use of the Molecular Devices software package Soft Max.
For isolation of a adherent cells, 3×10^6 non-PHA stimulated peripheral blood cells were resuspended in Hanks buffered saline with calcium and magnesium supplemented with 10% human AB serum. The cells were placed in a 24-well microtiter plate at 37° C. for 2 hours. Non-adherent cells were removed by vigorously washing six times. The adherent cells were cultured for 7 days in RPM1 1640 tissue culture medium with 15% fetal bovine serum. The cultures were carefully monitored for confluency during this incubation period. Infection of the cells was performed with the monocytotropic HIV-1 strains BaL or ADA and the matched pair of AZT-sensitive and AZT-resistant virus isolates. Each of these virus isolates was obtained from the NLAID AIDS Research and Reference Reagent Program. High titer pools of each of these viruses have been harvested from infected cultures of peripheral blood adherent cells and frozen in 1.0 ml aliquots at −80° C. Monocyte-macrophage monolayers were infected at an MOI of 0.1. […] Compounds to be evaluated in the monocyte-macrophage assay were added to the monolayers shortly before infection in order to maximize the potential for identifying active compounds.
At two days post-infection, the medium was decanted and the cultures washed twice with complete medium in order to remove excess virus. Fresh medium alone or medium containing the appropriate concentration of drugs was added and incubation continued for an additional 5 days. XTT-tetrazolium or trypan blue exclusion assays for cell viability and HIV p24 ELISA assays for production of p24 core antigen were performed on Day 7 post-infection. ELISA kits were purchased from Coulter. Control curves were generated in each assay to accurately quantitate the amount of capsid protein in each sample. Data was obtained by spectrophotometric analysis at 450 nm using a Molecular Devices Vmax plate reader. P24 concentrations were calculated from the optical density values by use of the Molecular Device software package Soft Max.

[5] = tested on: HSV-2; test: In vitro HSV-2 plaque inhibition on fibroblasts; type: cell-based
Method: Laboratory testing was undertaken at the University Of Chicago, Clinical Microbiology Laboratories to determine inhibitory activity in vitro of the medical treatment and composition (medicine). The laboratory testing was conducted by the Associate Director, PhD, and Associate Professor of Pathology. […] It was stated by the pathologist, that they had tested “hundreds” of other compounds and had never seen anything as good as what this compound did. The following are the tests of the medicine that were conducted and results that were obtained at The University of Chicago. For ease of interpreting some of the scientific data and test results, the following definitions apply: • “MEM” pertains to Minimal Essential Medium. This is the culture medium used in laboratories for growing the cells upon which tests were run. • “Fibroblast” is a mesenchyme human cell (a cell found in connective tissue, blood, bone, lymphatics, and cartilage). • “IC50” pertains to the Inhibitory Concentrate. […] Three 24-compartment plates were inoculated with fibroblasts. […] There were four control compartments on each plate containing MEM without drug. 2. The growth media was removed from the compartments and 200 ul of HSV-1 was added to each compartment of the upper half of each plate. […] Also, 200 ul of HSV-2 was added to each compartment of the lower half of each plate. […] The virus titer was 6×10^5 per mL. 3. The plates were incubated at 37° C. for two hours. 4. The inoculum was removed and one mL of the MEM containing Drugs #1-3 were added to the four compartments. The concentration of the drug compared to the MEM is indicated below. […] Four plates were used to screen the four drug preparations. […] There were four control compartments on each plate containing MEM without drug. 2. The growth media was removed from the compartments and 200 ul of HSV-1 was added to each compartment of the upper two rows of each plate. […] Also, 200 ul of HSV-2 was added to each compartment of the lower half of each plate. […] The virus titer was 6×10^5 per mL. 3. The plates were incubated at 37° C. for four hours. 4. The inoculum was removed and one mL of the MEM containing drugs #1-4 was added to the four compartments.

[6] = tested on: transmission of virus from chronically infected H9 cells to ME180 cervical epithelial cells; test: Topical microbicide assay (p24 ELISA); type: cell-based, HIV; conditions: qualitative
Method: MEI 180 cervical epithelial cells were plated in the interior walls of a 96-well flat bottom microtiter plate at a density of […] cells per well and incubated overnight. Chronically infected H9 cells wee treated with 200 μg/ml mitomycin C in complete medium for one hour, washed extensively and resuspended at 4×10^5 per ml. […] Antiviral compounds and chronically infected cells (2×10^4) were added to each well containing ME180 cells and incubated for 6 hours. Following co-cultivation the monolayer was washed extensively and fresh medium added. Medium was removed and fresh medium added at 24 and 48 hours post-infection to remove dead lymphocytes. On day 6 post-infection, supernatant samples were removed and analyzed for virus content by p24 ELISA.

Compound: OCc1ccccc1 [Benzyl alcohol]
- solubility in water [1]: 4 g/100 mL

Compound: Benzalkonium chloride [Drug #1A]
- plaques ([2]; HSV-1, 1:2): toxic
- plaques ([2]; HSV-1, 1:4): toxic
- plaques ([2]; HSV-1, 1:8): toxic
- plaques ([2]; HSV-1, 1:16): toxic
- plaques ([2]; HSV-1, 1:32): toxic

Compound: Cc1cn([C@H]2C[C@H](N=[N+]=[N-])[C@@H](CO)O2)c(=O)[nH]c1=O [AZT, zidovudine]
- inhibition of replication of isolate ROJO in fresh human PBMCs [3]: expected level of activity
- activity in monocyte-macrophages infected with ADA ([4]; qualitative): expected level of activity
- P-24 Activity ([4]; 0.0004 μM): 1005.00 pg/mL and 1252.00 pg/mL and 954.10 pg/mL and 1097.00 pg/mL and 1160.00 pg/mL and 1098.00 pg/mL
- P-24 Activity ([4]; 0.0014 μM): 919.00 pg/mL and 1150.00 pg/mL and 678.70 pg/mL and 821.90 pg/mL and 594.80 pg/mL and 983.10 pg/mL
- P-24 Activity ([4]; 0.004 μM): 470.80 pg/mL and 660.90 pg/mL and 912.30 pg/mL and 914.90 pg/mL and 891.20 pg/mL and 499.20 pg/mL

Compound: Benzalkonium chloride [Drug #1B]
- plaques ([2]; HSV-1, 1:20): toxic
- plaques ([2]; HSV-1, 1:40): toxic
- plaques ([2]; HSV-1, 1:80): toxic
- plaques ([2]; HSV-1, 1:160): toxic
- plaques ([2]; HSV-1, 1:320): 15?* and 18?*
- plaques ([5]; HSV-2, 1:20): toxic
- plaques ([5]; HSV-2, 1:40): toxic
- plaques ([5]; HSV-2, 1:80): toxic
- plaques ([5]; HSV-2, 1:160): toxic
- Average plaques ([5]; HSV-2, 1:320): 19
- plaques ([5]; HSV-2, 1:320): 21 and 17

Compound: dextran
- activity in topical microbicide assay [6]: expected level of activity

Compound: Dextran sulfate
- activity in topical microbicide assay [6]: expected level of activity
